Here are results for one substance from patent publication US10226509B2, “Lymphangiogenesis inhibitors for cancer and for graft survival” (TUFTS UNIVERSITY, priority 2014, dated 2019).

Test [1] deals with AKT. Description: Western blot of AKT activation in primary LECs. It is filed as cell-based, human. The conditions noted are these: 0.5 μM for 0 to 60 minutes or 0 to 0.5 μM for 30 minutes. The protocol: (§1) Primary LECs were lysed with Triton lysis buffer supplemented with protease inhibitor cocktail and Phos-STOP phosphatase inhibitor cocktail (Roche), and subjected to electrophoresis in 4-15% SDS-PAGE gels (Bio-Rad). Protein blots of the gels were blocked with 0.5×Odyssey® blocking buffer (OBB, Li-COR). For AKT and ERK signaling, blots were incubated with primary antibodies (rabbit anti-ERK1/2, 1:7500, Cell Signaling Technology; mouse anti-phospho-ERK1/2, Thr202/Tyr204, 1:2000, Cell Signaling Technology; mouse anti-AKT1/2/3, 1:2000, Cell Signaling Technology; rabbit anti-phospho-AKT, Ser473, 1:1500, Cell Signaling Technology) overnight at 4° C. Blots were washed with 0.5% Tween-20/PBS three times, and were incubated with appropriate secondary antibodies (donkey anti-rabbit IRDye 680LT and anti-mouse IRDye 800CW, Li-Cor) for 45 min at 25° C. The blots were scanned by an Odyssey® Infrared Imaging System using Image Studio v2.0 software (Li-COR). […] Signals were detected by Odyssey® Infrared Imaging System. […]
(Immunoblotting shows a protein as a band on a membrane.)

For test [2], the system named is ERK1/2. Description: Western blot of ERK activation in primary LECs. It is filed as cell-based, human. The conditions noted are these: 0.5 μM for 0 to 60 minutes or 0 to 0.5 μM for 30 minutes. The protocol: as §1
For test [3], the system named is VEGFR-3. The test can be described thus: Affinity precipitation assay, VEGFR-3. It is filed as binding, human. Particulars: galectin-conjugated agarose beads, LEC lysates. The protocol:
Five mg of plant lectins (Vector Labs) and galectins were conjugated to 330 mg of Pierce® NHS-activated agarose dry resin in accordance with the manufacturer's instructions (Thermo Scientific). Primary LECs (Lonza) were lysed in Triton lysis buffer (20 mM Tris-HCl, pH 7.4; 150 mM NaCl; 0.5% Triton X-100 with protease inhibitor cocktail). LEC lysates (250 μg in 500 μL lysis buffer supplemented with 10 mM MgCl2) were incubated with 40 μL (50% slurry) of agarose-conjugated lectins (4° C., overnight). Beads were pelleted by centrifugation at 3000 rpm for 1 min. Non-specific binding proteins were removed by washing the beads with Triton lysis buffer once and PBS twice. Supernatants were discarded; bound proteins were eluted by boiling the beads with 20 μL of 2× Laemmli sample buffer for 7 min, and examined by western blotting.
Next, a series of examples were performed to determine whether VEGF-C-induced lymphangiogenesis is dependent on Gal-8. To determine whether VEGFR-3 is a Gal-8-binding protein, LEC lysates were incubated with Gal-8-conjugated agarose beads in the presence or absence of 0.1 M of lactose (an inhibiting sugar) or sucrose (a non-inhibiting sugar). Bound proteins were examined and were compared to total cell lysates (input) by western blot using anti-VEGFR-3 antibody. Three forms of VEGFR-3 (125 kDa, 175 kDa and 195 kDa) were detected in total cell lysates (FIG. 5A) (Bando, H., et al. 2004. Int J Cancer 111:184-191.). […] Having shown that Gal-8 binds to VEGFR-3 in LECs and that the carbohydrate-binding activity of Gal-8 is required for the synergistic effect of Gal-8 on VEGF-C-induced LEC sprouting, it was of interest to determine whether VEGFR-3 bears 3′-sialylated glycans.

Test [4] has as its system PDPN. Description: Cell surface expression of PDPN by flow cytometry. It is filed as cell-based, human. Particulars: 30 min post-treatment; Gal-8 0.2 μM. The protocol: (§2) Primary LECs were serum-starved overnight in basal EBM-2 medium. The cells were incubated with or without VEGF-C (50 ng/ml, PeproTech) or Gal-8 (0.2 μM) in serum-free EBM-2 medium for 10 and 30 min. At the end of the incubation period, cells were lifted with StemPro® Accutase® cell dissociation reagent (Invitrogen), washed with PBS and fixed with 4% paraformaldehyde/PBS on ice for 10 min, and were then stained using rat anti-human PDPN (1:500, BioLegend) and mouse anti-human VEGFR-3 (clone 9D9F9) (1:100, BioLegend) primary antibodies in cell staining buffer (BioLegend, 45 min on ice) and Alexa Fluor® 488 donkey anti-rat and Alexa Fluor® 647 anti-mouse secondary antibodies (1:1000, Invitrogen, 30 min on ice). For negative control, the primary antibodies were omitted. The stained cells were fixed with 2% paraformaldehyde/PBS, analyzed with BD FACSCalibur, and the mean fluorescence intensity of VEGFR-3 and PDPN were quantified with the FlowJo software (version 9.5.2).
On the technique in general: A flow cytometer gives signals particle by particle.

In test [5] the test system is VEGFR-3. The test can be described thus: Cell surface expression of VEGFR-3 by flow cytometry. It is filed as cell-based, human. The conditions noted are these: Gal-8 0.2 μM or VEGF-C 50 ng/ml. The protocol: as §2

For “Gal-8: recombinant galectin-8, tandem-repeat type galectin with two different CRDs”, in test [1], the “phosphorylation of AKT (in words)” value is “induced phosphorylation of AKT and ERK1/2 in time- and dose-dependent manner”. Moreover, the “phosphorylation of ERK1/2 (in words)” value in test [2] was “induced phosphorylation of AKT and ERK1/2 in time- and dose-dependent manner”. The “binding to VEGFR-3 (in words)” value in test [3] is “interacted with 125 and 195 kDa VEGFR-3 and not with 175 kDa VEGFR-3”. Also, in test [4], the “increase of cell surface expression of PDPN” value is reported as “about 30%”. For the same substance, the “decrease of cell surface expression of VEGFR-3” value in test [5] is reported as “about 10%”.
